In US10358446B2, “Bruton's tyrosine kinase inhibitors” (Zibo Biopolar Changsheng Pharmaceutical Co. Ltd., priority 2015, dated 2019):

Biological target: BTK (Homo sapiens (Human), UniProt Q06187)
Assay: Btk kinase assay (HTRF)
Assay type: biochemical
Conditions: [ATP]=80 μM, BTK=3.4 nM; read-out: BTK Inhibition
Summary of the method: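 HTRF kinase read-out (665/615 nm ratio, excitation 330 nm) after EDTA quench and 1 h detection incubation. Reaction: 3.4 nM BTK, ATP 80 μM, peptide substrate 1 μM, compound, HEPES pH 7.0 buffer, 1 h; IC50 derived using uninhibited and enzyme-free controls.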

Sequence of BTK (Q06187 whole entry, species assumed): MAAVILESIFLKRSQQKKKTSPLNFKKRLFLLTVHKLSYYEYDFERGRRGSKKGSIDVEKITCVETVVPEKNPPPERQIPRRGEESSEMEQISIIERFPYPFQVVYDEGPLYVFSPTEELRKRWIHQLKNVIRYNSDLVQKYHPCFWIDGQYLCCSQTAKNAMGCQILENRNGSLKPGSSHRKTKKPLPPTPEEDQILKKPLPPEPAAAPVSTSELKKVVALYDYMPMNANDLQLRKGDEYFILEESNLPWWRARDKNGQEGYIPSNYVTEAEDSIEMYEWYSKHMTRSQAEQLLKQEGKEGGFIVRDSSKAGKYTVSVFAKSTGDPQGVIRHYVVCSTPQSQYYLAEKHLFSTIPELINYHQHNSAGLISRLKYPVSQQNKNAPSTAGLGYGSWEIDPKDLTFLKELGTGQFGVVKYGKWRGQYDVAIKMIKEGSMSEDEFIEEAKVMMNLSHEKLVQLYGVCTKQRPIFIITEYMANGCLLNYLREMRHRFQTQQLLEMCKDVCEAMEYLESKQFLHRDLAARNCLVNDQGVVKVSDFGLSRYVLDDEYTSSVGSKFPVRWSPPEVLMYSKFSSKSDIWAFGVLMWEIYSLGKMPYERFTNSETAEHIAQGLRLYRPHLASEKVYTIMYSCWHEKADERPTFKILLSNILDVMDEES

Structure (SMILES) | IC50 [nM]
CC#CC(=O)N1CCC[C@@H]1Cn1c(=O)n(-c2ccc(Oc3cccc(OC)c3F)cc2)c2cncc(C)c21 [Example 169, (R)-1-((1-(but-2-ynoyl)pyrrolidin-2-yl)methyl)-3-(4-(2-fluoro-3-methoxyphenoxy)phenyl)-7-methyl-1H-imidazo[4,5-c]pyridin-2(3H)-one] | 100 to 1000
C=CC(=O)N1CCC[C@@H](n2c(=O)n(-c3ccc(Oc4cccc(F)c4OC)cc3)c3cnccc32)C1 [Example 140, (R)-1-(1-acryloylpiperidin-3-yl)-3-(4-(3-fluoro-2-methoxyphenoxy)phenyl)-1H-imidazo[4,5-c]pyridin-2(3H)-one] | 100 to 1000
C=CC(=O)Nc1cccc(-n2c(=O)n(-c3ccc(Oc4cc(F)cc(F)c4)cc3)c3cnccc32)c1 [Example 127, N-(3-(3-(4-(3,5-difluorophenoxy)phenyl)-2-oxo-2,3-dihydro-1H-imidazo[4,5-c]pyridin-1-yl)phenyl)acrylamide] | 100 to 1000
C=CC(=O)N1CC[C@@H](n2c(=O)n(-c3ccc(OCc4ccc(C(F)(F)F)cc4)c(Cl)c3)c3cnccc32)C1 [Example 205, (R)-1-(1-acryloylpyrrolidin-3-yl)-3-(3-chloro-4-((4-(trifluoromethyl)benzyl)oxy)phenyl)-1H-imidazo[4,5-c]pyridin-2(3H)-one] | 100 to 1000
C=CC(=O)N1CC[C@@H](n2c(=O)n(-c3ccc(Oc4ccccc4)cc3)c3cncc(C#N)c32)C1 [Example 181, (R)-1-(1-acryloylpyrrolidin-3-yl)-oxo-3-(4-phenoxyphenyl)-2,3-dihydro-1H-imidazo[4,5-c] pyridine-7-carbonitrile] | 10 to 100
C=CC(=O)N1CC[C@@H](n2c(=O)n(-c3ccc(Oc4cccc(C)c4OC)cc3)c3cnccc32)C1 [Example 67, (R)-1-(1-acryloylpyrrolidin-3-yl)-3-(4-(2-methoxy-3-methylphenoxy)phenyl)-1H-imidazo[4,5-c]pyridin-2(3H)-one] | 10 to 100
NC(=O)C(=O)N1CCCC(n2c(=O)n(-c3ccc(Oc4ccccc4)cc3)c3cnccc32)C1 (stereo not shown) [Example 194, 2-oxo-2-(3-(2-oxo-3-(4-phenoxyphenyl)-2,3-dihydro-1H-imidazo[4,5-c]pyridin-1-yl)piperidin-1-yl)acetamide] | ≥ 10000
C=CC(=O)N1CC[C@@H](n2c(=O)n(-c3ccc(Oc4cccc(OC)c4Cl)cc3)c3cnccc32)C1 [Example 135, (R)-1-(1-acryloylpyrrolidin-3-yl)-3-(4-(2-chloro-3-methoxyphenoxy)phenyl)-1H-imidazo[4,5-c]pyridin-2(3H)-one] | 10 to 100
O=C(/C=C/c1ccccc1)Nc1cccc(-n2c(=O)n(-c3ccc(Oc4ccccc4)cc3)c3cnccc32)c1 [Example 109, N-(3-(2-oxo-3-(4-phenoxyphenyl)-2,3-dihydro-1H-imidazo[4,5-c]pyridin-1-yl)phenyl)cinnamamide] | ≥ 10000
C=CC(=O)N1CC[C@@H](n2c(=O)n(-c3ccc(OCc4ccccc4F)cc3)c3cnccc32)C1 [Example 216, (R)-1-(1-acryloylpyrrolidin-3-yl)-3-(4-((2-fluorobenzyl)oxy)phenyl)-1H-imidazo[4,5-c]pyridin-2(3H)-one] | 100 to 1000
C=CC(=O)Nc1cccc(-n2c(=O)n(-c3ccc(Oc4cccc(OC(F)(F)F)c4)cc3)c3cnccc32)c1 [Example 70, N-(3-(2-oxo-3-(4-(3-(trifluoromethoxy)phenoxy)phenyl)-2,3-dihydro-1H-imidazo[4,5-c]pyridin-1-yl)phenyl)acrylamide] | 1000 to 10000
C=CC(=O)Nc1cccc(-n2c(=O)n(-c3ccc(OCc4cccc(C(F)(F)F)c4)c(Cl)c3)c3cnccc32)c1 [Example 243, N-(3-(3-(3-chloro-4-((3-(trifluoromethyl)benzyl)oxy)phenyl)-2-oxo-2,3-dihydro-1H-imidazo[4,5-c]pyridin-1-yl)phenyl)acrylamide] | 100 to 1000
C=CC(=O)N1CC[C@@H](n2c(=O)n(-c3ccc(OCc4ccc(F)c(F)c4)cc3)c3cnccc32)C1 [Example 214, (R)-1-(1-acryloylpyrrolidin-3-yl)-3-(4-((3,4-difluorobenzyl)oxy)phenyl)-1H-imidazo[4,5-c]pyridin-2(3H)-one] | 1000 to 10000
C=CC(=O)Nc1cccc(-n2c(=O)n(-c3ccc(Oc4cccc(C)c4C)c(Cl)c3)c3cnccc32)c1 [Example 148, N-(3-(3-(3-chloro-4-(2,3-dimethylphenoxy)phenyl)-2-oxo-2,3-dihydro-1H-imidazo[4,5-c]pyridin-1-yl)phenyl)acrylamide] | 10 to 100
C=CC(=O)Nc1cccc(-n2c(=O)n(-c3ccc(Oc4cccc(Cl)c4C)cc3)c3cnccc32)c1 [Example 150, N-(3-(3-(4-(3-chloro-2-methylphenoxy)phenyl)-2-oxo-2,3-dihydro-1H-imidazo[4,5-c]pyridin-1-yl)phenyl)acrylamide] | 10 to 100
C=CC(=O)N1CC[C@@H](n2c(=O)n(-c3ccc(OCc4ccccc4C(F)(F)F)c(Cl)c3)c3cnccc32)C1 [Example 203, (R)-1-(1-acryloylpyrrolidin-3-yl)-3-(3-chloro-4-((2-(trifluoromethyl)benzyl)oxy)phenyl)-1H-imidazo[4,5-c]pyridin-2(3H)-one] | 100 to 1000

Structure (SMILES) | IC50 [nM]
C=CC(=O)N1CCC[C@@H](n2c(=O)n(-c3ccc(Oc4cccc(C)c4F)cc3)c3cnccc32)C1 [Example 141, (R)-1-(1-acryloylpiperidin-3-yl)-3-(4-(2-fluoro-3-methylphenoxy)phenyl)-1H-imidazo[4,5-c]pyridin-2(3H)-one] | 10 to 100
C=CC(=O)Nc1cccc(-n2c(=O)n(-c3ccc(OCc4ccccc4C(F)(F)F)cc3)c3cnccc32)c1 [Example 232, N-(3-(2-oxo-3-(4-((2-(trifluoromethyl)benzyl)oxy)phenyl)-2,3-dihydro-1H-imidazo[4,5-c]pyridin-1-yl)phenyl)acrylamide] | 10 to 100
C=CC(=O)N1CC[C@@H](n2c(=O)n(-c3ccc(Oc4ccccc4)cc3)c3c(OC)nccc32)C1 [Example 182, (R)-1-(1-acryloylpyrrolidin-3-yl)-4-methoxy-3-(4-phenoxyphenyl)-1H-imidazo[4,5-c]pyridin-2(3H)-one] | ≥ 10000
C=CC(=O)Nc1cccc(-n2c(=O)n(-c3cccc(Oc4cccc(Cl)c4)c3)c3cnccc32)c1 [Example 74, N-(3-(3-(3-(3-chlorophenoxy)phenyl)-2-oxo-2,3-dihydro-1H-imidazo[4,5-c]pyridin-1-yl)phenyl)acrylamide] | 10 to 100
C=CC(=O)Nc1cccc(-n2c(=O)n(-c3ccc(Oc4cccc(F)c4F)cc3)c3cnccc32)c1 [Example 125, N-(3-(3-(4-(2,3-difluorophenoxy)phenyl)-2-oxo-2,3-dihydro-1H-imidazo[4,5-c]pyridin-1-yl)phenyl)acrylamide] | 10 to 100
C=CC(=O)Nc1cccc(-n2c(=O)n(-c3ccc(OCc4ccccc4F)c(Cl)c3)c3cnccc32)c1 [Example 235, N-(3-(3-(3-chloro-4-((2-fluorobenzyl)oxy)phenyl)-2-oxo-2,3-dihydro-1H-imidazo[4,5-c]pyridin-1-yl)phenyl)acrylamide] | 10 to 100
C=CC(=O)N1CCC[C@@H](n2c(=O)n(-c3ccc(Oc4cccc(OC)c4F)cc3)c3cnccc32)C1 [Example 186, (R)-1-(1-acryloylpiperidin-3-yl)-3-(4-(2-fluoro-3-methoxyphenoxy)phenyl)-1H-imidazo[4,5-c]pyridin-2(3H)-one] | ≤ 10
CN(C/C=C/C(=O)N1CC[C@@H](n2c(=O)n(-c3ccc(Oc4ccccc4)cc3)c3cnccc32)C1)C1CC1 [Example 187, (R,E)-1-(1-(4-(cyclopropyl(methyl)amino)but-2-enoyl)pyrrolidin-3-yl)-3-(4-phenoxyphenyl)-1H-imidazo[4,5-c]pyridin-2(3H)-one] | 100 to 1000
C=CC(=O)Nc1cccc(-n2c(=O)n(-c3ccc(OCc4ccccc4F)cc3)c3cnccc32)c1 [Example 228, N-(3-(3-(4-((2-fluorobenzyl)oxy)phenyl)-2-oxo-2,3-dihydro-1H-imidazo[4,5-c]pyridin-1-yl)phenyl)acrylamide] | 100 to 1000
C=CC(=O)N1CC[C@@H](n2c(=O)n(-c3ccc(Oc4cccc(Cl)c4F)c(F)c3)c3cnccc32)C1 [Example 101, (R)-1-(1-acryloylpyrrolidin-3-yl)-3-(4-(3-chloro-2-fluorophenoxy)-3-fluorophenyl)-1,3-dihydro-2H-imidazo[4,5-c]pyridin-2-one] | 10 to 100
C=CC(=O)N1CC[C@@H](n2c(=O)n(-c3ccc(Oc4cccc(C5CC5)c4)cc3)c3cnccc32)C1 [Example 10, (R)-1-(1-acryloylpyrrolidin-3-yl)-3-(4-(3-cyclopropylphenoxy)phenyl)-1H-imidazo[4,5-c]pyridin-2(3H)-one] | 100 to 1000
C=CC(=O)N1CCC[C@@H]1Cn1c(=O)n(-c2ccc(Oc3cccc(OC)c3F)cc2)c2cncc(C)c21 [Example 170, (R)-1-((1-acryloylpyrrolidin-2-yl)methyl)-3-(4-(2-fluoro-3-methoxyphenoxy)phenyl)-7-methyl-1H-imidazo[4,5-c]pyridin-2(3H)-one] | 100 to 1000
CN(C/C=C/C(=O)N1CCC[C@@H](n2c(=O)n(-c3ccc(Oc4ccccc4)cc3)c3cnccc32)C1)C1CC1 [Example 188, (R,E)-1-(1-(4-(cyclopropyl(methyl)amino)but-2-enoyl)piperidin-3-yl)-3-(4-phenoxyphenyl)-1H-imidazo[4,5-c]pyridin-2(3H)-one] | 100 to 1000
C=CC(=O)N1CC[C@H](n2c(=O)n(-c3ccc(Oc4ccccc4)cc3)c3c(/C(N)=N/O)nccc32)C1 [Example 179, (S,Z)-1-(1-acryloylpyrrolidin-3-yl)-N′-hydroxy-2-oxo-3-(4-phenoxyphenyl)-2,3-dihydro-1H-imidazo[4,5-c] pyridine-4-carboximidamide] | ≥ 10000
C=CC(=O)N1CC[C@@H](n2c(=S)n(-c3ccc(Oc4cccc(C)c4)cc3)c3cnccc32)C1 [Example 11, (R)-1-(3-(2-thioxo-3-(4-(m-tolyloxy)phenyl)-2,3-dihydro-1H-imidazo[4,5-c]pyridin-1-yl)pyrrolidin-1-yl)prop-2-en-1-one] | 100 to 1000
